Our source for the IC50 and CC50 values is patent EP0453247A2, “Anti-viral compounds” (THE WELLCOME FOUNDATION LIMITED, priority 1990, dated 1991).

A value given as a limit tells only on which side of the number the result lay.

One series has as its system VZV. Put plainly: VZV plaque reduction assay. Conditions: Human alphaherpesvirus 3; plaque reduction in monolayers of MRC5 or Detroit 532 cells; read-out: VZV 1C50. Type of series: cell-based. As for the experimental part:
Antiviral testing against VZV was determined by measuring the ability of the compound to reverse the cytophathic effect of VZV infection.
VZV is assayed in monolayers of either MRC5 cells (human embryonic lung) or Detroit 532 cells (human foreskin fibroblasts) in multiwell trays. Activity of compounds is determined in the plaque reduction assay, in which a cell monolayer is infected with a suspension of VZV. Plaque numbers of each concentration are expressed as percentage of the control and a dose-response curve is drawn. From this curve the 50% inhibitory concentration (IC₅₀) is estimated.

A short description of series [1]: Cell growth inhibition assay (MTT uptake). Type of series: cell-based. Conditions: monkey, Vero cells, 50% inhibition of cell viability at 96 hours, read-out: Toxicity CCID50(Vero). The method, then:
Cell toxicity is assessed in a cell growth inhibition assay. Subconfluent cultures of Vero cells grown on 96-well microtiter dishes are exposed to different dilutions of drug, and cell viability determined daily on replicate cultures using uptake of a tetrazolium dye (MTT). The concentration required for a 50% inhibition of cell vaibility at 96 hours is termed CCID₅₀.

With `C#Cc1cn([C@@H]2O[C@H](CO)[C@@H](O)[C@H]2F)c(=O)nc1N` [2'-Deoxy-5-ethynyl-2'-fluorocytidine, 2′-Deoxy-5-ethynyl-2′fluorocytidine], the IC50 in the series on VZV amounted to 5.3 µM. In series [1], the CC50 at 96 h was > 500 µM.
The matching figures for `C#Cc1cn([C@@H]2O[C@H](CO)[C@@H](O)[C@H]2F)c(=O)[nH]c1=O` [2'-Deoxy-5-ethynyl-2'-fluorouridine, 2′-Deoxy-5-ethynyl-2′-fluoro uridine]: 2.16 µM and 156 µM.
The matching figures for `CC#Cc1cn([C@@H]2O[C@H](CO)[C@@H](O)[C@H]2F)c(=O)nc1N` [2'-Deoxy-2'-fluoro-5-prop-1-ynylcytidine, 2′-Deoxy-2′-fluoro-5-prop-1-ynylcytidine]: 2.3 µM and > 500 µM.
Consider `CC#Cc1cn([C@@H]2O[C@H](CO)[C@@H](O)[C@H]2F)c(=O)[nH]c1=O` [2'-Deoxy-2'-fluoro-5-prop-1-ynyluridine, 2′-Deoxy-2′-fluoro-5-prop-1-ynyluridine], for which, in the series with VZV, the IC50 is 2.6 µM. For the same compound, the CC50 at 96 h in series [1] is > 500 µM.
